{"source": "patent US7622271B2", "about": "“Identification of aging genes through large-scale analysis” (University of Washington, priority 2004, dated 2009)", "test_system": "yeast cells", "details": "for life span: yeast replicative life span", "description": "FIG. 2 illustrates replicative life span (“RLS”) analysis in yeast. […] A mother cell is a yeast cell that has produced one or more daughter cells. […] The total number of mitotic divisions completed by a given mother cell is the replicative life span for that mother cell. One indicator of senescence in yeast is the inability to produce daughter cells.\nA large-scaled, life-span analysis is performed as follows. Approximately three days before initiating a life-span-determination assay, a set of 95 strains contained in a yeast alpha-haploid-deletion collection (Open Biosystems), is transferred to a 96-well plate containing YPDagar using a FX robot, so that each strain occupies one well of a 96-well plate. Concurrently, “wildtype” reference cells (BY4742) are plated within an empty well of the 96-well test plate. For 1-2 days, plated cells are allowed to grow on rich medium, such as YPD, at 30° C. Cells are patched onto life-span-measuring plates containing YPD so that approximately 12 strains are plated per plate the night, or approximately 12 hours, before initiating life-span analysis. A life-span experiment is initiated by gridding a region of the plate distal to growing cells, to which 5 cells of each strain of 12 strains are transferred by micromanipulation. Cells are incubated for two hours at 30° C. Then, virgin daughter cells of each deletion variant cell are selected, and original mother cells are removed. Such virgin daughter cells are monitored for de novo production of daughters at 2-3 hour intervals. Produced daughters are individually removed, and tabulated. Mother cells are placed back at 30° C. to allow continued growth. During evening hours, cells are moved to 4° C. so that the cell division rate is reduced to one cell division per evening. The following day, cells are placed at 30° C. to resume growth. This process is continued for a period of time, approximately two weeks, to allow cells of each variant strain to exhaust its proliferative potential. The total number of daughter cells produced by each mother variant cell is tabulated, and determined RLS values are entered into a database.", "note": "Read-outs that look alike come from different tables or passages of the source.", "data": [{"smiles": "CS(=N)(=O)CC[C@H](N)C(=O)O", "note": "(stereo partly drawn) [MSX, methionine sulfoximine]", "values": [{"measurement": "life span", "setting": "50 uM, preliminary experiments", "result": "significantly increases life span"}, {"measurement": "life span", "setting": "100 uM, preliminary experiments", "result": "significantly increases life span"}, {"measurement": "increase in mean replicative life span", "setting": "1 mM (maximal life span extension), preliminary experiments", "result": "25-30%"}, {"measurement": "life span", "setting": "1 mM, preliminary experiments", "result": "significantly increases life span"}, {"measurement": "life span", "setting": "2.5 mM, preliminary experiments", "result": "significantly increases life span"}, {"measurement": "replicative life span in yeast", "setting": "exposure of yeast cells to MSX", "result": "extends replicative life span"}]}]}
